Data: patent US7838556B2 (priority 2006, dated 2010)
Where a name gives a salt, the structure may show the parent alone. Read-outs that look alike come from different tables or passages of the source.

How the values were obtained:
Melatonin, Non-selective = type: binding
[1] = target: T1, GHB receptors (GHB sites) (Rattus norvegicus, UniProt P11275); settings: cited from earlier work
GABAA receptors [2] = settings: cited from earlier work
Sodium, Site 2 = type: binding
[3] = target: Adrenergic, Beta, Non-selective; type: binding
[4] = target: Muscarinic, Non-selective, Central; type: binding
[5] = target: Muscarinic, Non-selective, Peripheral; type: binding
GABAB receptors [6] = target: T2, GABAB receptors (Rattus norvegicus, UniProt Q9Z0U4); settings: cited from earlier work
GABA receptors [7] = settings: cited from earlier work
GABAA receptors [8] = type: binding, rat
GABAB receptors [9] = target: T2, GABAB receptors; type: binding
GABA receptors [10] = type: binding, rat
Adenosine, Non-selective = type: binding
[11] = system: Adrenergic, Alpha 1, Non-selective; type: binding
[12] = system: Adrenergic, Alpha 2, Non-selective; type: binding
Dopamine, Non-selective = type: binding
GABA, Non-Selective = type: binding
Opiod, Non-selective = type: binding
Serotonin, Non-selective = type: binding
Sigma, Non-selective = type: binding
[13] = system: Calcium Channel, Type L (Benzothiazepine Site); type: binding
[14] = system: Calcium Channel, Type L (Dihydropyridine Site); type: binding
Calcium Channel, Type N = Calcium Channel, Type N (Homo sapiens, UniProt Q00975); type: binding
[15] = system: GABA, Chloride, TBOB Site; type: binding
[16] = target: Potassium Channel, ATP-Sensitive (Rattus norvegicus, UniProt Q09429); type: binding
[17] = target: Potassium Channel, I[Kr] (hERG) (hr) (Homo sapiens, UniProt Q12809)
[18] = target: T1, GHB receptors (GHB sites); type: binding
[19] = target: Calcium Channel, Type L (Dihydropyridine Site); settings: cited from earlier work

T2 sequence (O88871 41-940): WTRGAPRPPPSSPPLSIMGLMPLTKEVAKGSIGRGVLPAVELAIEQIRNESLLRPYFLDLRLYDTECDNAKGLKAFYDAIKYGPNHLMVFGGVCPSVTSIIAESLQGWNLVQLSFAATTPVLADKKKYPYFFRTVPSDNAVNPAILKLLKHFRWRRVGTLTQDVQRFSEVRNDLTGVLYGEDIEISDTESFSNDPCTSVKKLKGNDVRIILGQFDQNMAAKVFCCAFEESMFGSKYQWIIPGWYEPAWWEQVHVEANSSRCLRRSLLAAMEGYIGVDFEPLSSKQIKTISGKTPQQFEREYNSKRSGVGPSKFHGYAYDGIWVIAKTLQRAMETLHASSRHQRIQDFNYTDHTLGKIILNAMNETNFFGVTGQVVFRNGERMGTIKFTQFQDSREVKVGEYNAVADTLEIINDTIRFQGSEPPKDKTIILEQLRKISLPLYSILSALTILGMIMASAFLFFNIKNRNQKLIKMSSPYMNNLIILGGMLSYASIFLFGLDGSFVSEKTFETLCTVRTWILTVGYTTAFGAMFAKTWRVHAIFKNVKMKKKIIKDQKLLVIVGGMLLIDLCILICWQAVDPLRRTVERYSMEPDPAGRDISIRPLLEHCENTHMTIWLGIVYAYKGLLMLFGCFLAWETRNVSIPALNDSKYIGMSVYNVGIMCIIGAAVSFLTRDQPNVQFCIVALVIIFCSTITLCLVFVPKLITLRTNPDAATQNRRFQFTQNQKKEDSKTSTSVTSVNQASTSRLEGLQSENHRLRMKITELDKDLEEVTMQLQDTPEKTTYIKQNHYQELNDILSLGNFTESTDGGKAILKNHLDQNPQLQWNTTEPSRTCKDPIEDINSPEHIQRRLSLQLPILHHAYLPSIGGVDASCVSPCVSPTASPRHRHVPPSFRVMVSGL
T2 sequence (Q9Z0U4 17-960): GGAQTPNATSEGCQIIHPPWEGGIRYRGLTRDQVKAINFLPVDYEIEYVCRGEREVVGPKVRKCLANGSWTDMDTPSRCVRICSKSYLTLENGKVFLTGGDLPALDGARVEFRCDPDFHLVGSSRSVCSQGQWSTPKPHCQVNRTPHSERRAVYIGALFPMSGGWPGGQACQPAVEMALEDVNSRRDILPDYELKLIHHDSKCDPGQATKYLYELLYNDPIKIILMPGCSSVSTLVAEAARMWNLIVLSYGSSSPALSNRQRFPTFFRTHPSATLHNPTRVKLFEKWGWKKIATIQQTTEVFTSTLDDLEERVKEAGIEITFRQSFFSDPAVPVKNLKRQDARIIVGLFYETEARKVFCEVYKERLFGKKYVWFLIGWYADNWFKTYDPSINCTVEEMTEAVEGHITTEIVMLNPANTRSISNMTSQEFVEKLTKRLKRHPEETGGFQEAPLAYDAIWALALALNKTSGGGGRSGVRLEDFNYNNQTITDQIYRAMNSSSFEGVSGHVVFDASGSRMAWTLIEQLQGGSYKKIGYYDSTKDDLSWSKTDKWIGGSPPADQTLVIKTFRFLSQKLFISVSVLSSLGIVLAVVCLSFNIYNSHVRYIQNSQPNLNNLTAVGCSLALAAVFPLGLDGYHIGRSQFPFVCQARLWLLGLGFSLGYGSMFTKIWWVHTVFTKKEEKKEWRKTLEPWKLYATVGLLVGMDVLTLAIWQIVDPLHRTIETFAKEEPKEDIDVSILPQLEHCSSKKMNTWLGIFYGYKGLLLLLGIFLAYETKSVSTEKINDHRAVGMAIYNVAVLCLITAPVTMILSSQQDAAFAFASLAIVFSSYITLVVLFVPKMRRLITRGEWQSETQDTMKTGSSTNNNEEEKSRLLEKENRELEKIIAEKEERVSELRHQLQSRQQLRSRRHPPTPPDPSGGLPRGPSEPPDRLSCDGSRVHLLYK
Potassium Channel, I[Kr] (hERG) (hr), sequence (Q12809 whole entry): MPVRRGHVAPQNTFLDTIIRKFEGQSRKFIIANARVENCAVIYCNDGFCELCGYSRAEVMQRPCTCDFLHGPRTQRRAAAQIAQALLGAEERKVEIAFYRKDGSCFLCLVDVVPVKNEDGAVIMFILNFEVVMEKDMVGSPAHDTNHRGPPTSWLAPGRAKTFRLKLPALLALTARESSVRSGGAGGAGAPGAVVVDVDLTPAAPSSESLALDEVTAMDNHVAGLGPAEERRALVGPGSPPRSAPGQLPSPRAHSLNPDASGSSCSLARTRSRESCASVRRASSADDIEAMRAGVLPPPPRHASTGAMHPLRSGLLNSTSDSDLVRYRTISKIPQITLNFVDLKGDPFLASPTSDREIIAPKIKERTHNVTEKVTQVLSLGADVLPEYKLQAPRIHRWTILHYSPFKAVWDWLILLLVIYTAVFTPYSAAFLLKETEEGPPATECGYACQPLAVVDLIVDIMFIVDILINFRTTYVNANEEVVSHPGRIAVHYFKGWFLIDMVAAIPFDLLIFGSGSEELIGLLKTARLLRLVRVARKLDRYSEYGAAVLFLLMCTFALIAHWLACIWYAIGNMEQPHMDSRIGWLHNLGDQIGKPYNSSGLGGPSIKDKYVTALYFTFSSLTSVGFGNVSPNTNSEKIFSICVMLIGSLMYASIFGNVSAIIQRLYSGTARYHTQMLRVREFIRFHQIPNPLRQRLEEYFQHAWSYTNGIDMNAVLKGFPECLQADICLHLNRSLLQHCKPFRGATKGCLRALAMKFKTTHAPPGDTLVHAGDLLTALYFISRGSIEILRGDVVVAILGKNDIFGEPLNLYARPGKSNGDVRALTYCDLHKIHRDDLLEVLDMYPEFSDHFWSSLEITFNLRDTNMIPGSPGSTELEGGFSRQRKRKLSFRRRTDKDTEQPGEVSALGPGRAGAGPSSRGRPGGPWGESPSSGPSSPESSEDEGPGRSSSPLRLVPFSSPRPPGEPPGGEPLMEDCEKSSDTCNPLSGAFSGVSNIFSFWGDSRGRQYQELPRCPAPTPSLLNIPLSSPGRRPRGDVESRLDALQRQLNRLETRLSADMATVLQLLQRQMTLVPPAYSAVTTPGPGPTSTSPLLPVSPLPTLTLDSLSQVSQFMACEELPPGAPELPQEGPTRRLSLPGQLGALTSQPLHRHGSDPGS
T1 sequence (P11275 whole entry): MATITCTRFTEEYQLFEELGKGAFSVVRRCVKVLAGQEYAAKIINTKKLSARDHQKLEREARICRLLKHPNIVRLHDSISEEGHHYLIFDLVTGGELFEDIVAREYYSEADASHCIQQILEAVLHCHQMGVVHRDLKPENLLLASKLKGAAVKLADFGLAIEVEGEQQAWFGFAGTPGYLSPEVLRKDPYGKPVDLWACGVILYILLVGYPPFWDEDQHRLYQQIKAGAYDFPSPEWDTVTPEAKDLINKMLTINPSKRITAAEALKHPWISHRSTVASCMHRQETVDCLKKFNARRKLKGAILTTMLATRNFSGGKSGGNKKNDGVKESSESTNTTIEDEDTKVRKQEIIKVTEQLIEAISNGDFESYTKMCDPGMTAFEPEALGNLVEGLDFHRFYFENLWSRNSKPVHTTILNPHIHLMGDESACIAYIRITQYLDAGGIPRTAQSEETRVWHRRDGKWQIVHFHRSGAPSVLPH

SMILES: O=C(O)Cc1cccc(O)c1 [3-hydroxyphenylacetic acid]
- affinity at GHB receptors compared with GHB [1]: greater affinity than GHB
- Percent displacement of [3H]GABA at 1 Mm, GABAA (GABAA receptors [2]): 44%

SMILES: CCN1C[C@]2(COC)[C@H](O)C[C@H](OC)[C@@]34[C@@H]5C[C@@]6(O)[C@H](OC(=O)c7ccccc7)[C@@H]5[C@@](OC(C)=O)([C@@H]([C@H](OC)[C@H]23)[C@@H]14)[C@@H](O)[C@@H]6OC [Aconitine, reference compound]
- Ki (Sodium, Site 2; read-out: Ki (M) Ref. Cpd.): 6.67e-07 M

SMILES: C=CCc1ccccc1OCC(O)CNC(C)C (stereo not drawn) [Alprenolol HCl, reference compound]
- Ki ([3]; read-out: Ki (M) Ref. Cpd.): 3.33e-09 M

SMILES: CN1[C@@H]2CC[C@H]1C[C@@H](OC(=O)C(CO)c1ccccc1)C2 (stereo partly drawn) [Atropine sulfate, reference compound]
- Ki ([4]; read-out: Ki (M) Ref. Cpd.): 1.26e-10 M
- Ki ([5]; read-out: Ki (M) Ref. Cpd.): 5.8e-10 M

SMILES: O=C(O)CCCO [Compound 1, Gamma-hydroxybutyric acid]
- Percent displacement of [3H]GABA at 1 Mm, GABAA (GABAA receptors [2]): 35.5 ± 3.7%
- Percent displacement of [3H]GABA at 1 Mm, GABAB (GABAB receptors [6]): 41.1 ± 3.1%
- affinity for GABA receptors (GABA receptors [7]): weak affinity

SMILES: O=C(O)Cc1cccc(O)c1 [Compound 7, 3-hydroxyphenylacetic acid]
- Percent displacement of [3H]GABA at 1 Mm, GABAA (GABAA receptors [2]): 44.2 ± 2.0%
- Percent displacement of [3H]GABA at 1 Mm, GABAB (GABAB receptors [6]): 14.0 ± 4.0%
- affinity for GABA receptors (GABA receptors [7]): weak affinity

SMILES: O=C(O)CCCOc1ccccc1 [Compound 8, reference compound]
- Percent displacement of [3H]GABA at 1 Mm, GABAA (GABAA receptors [8]): 6.3 ± 1.7%
- Percent displacement of [3H]GABA at 1 Mm, GABAB (GABAB receptors [9]): 6.5 ± 1.0%

SMILES: O=C(O)Cc1cccc(OCCc2ccccc2)c1 [Compound 10, phenethyl ether of 3-hydroxyphenylacetic acid]
- Percent displacement of [3H]GABA at 1 Mm, GABAA (GABAA receptors [8]): 15.1 ± 7.5%
- Percent displacement of [3H]GABA at 1 Mm, GABAB (GABAB receptors [9]): −1.2 ± 7.3%
- affinity at GABA receptors / displacement of [3H]GABA compared with 3-hydroxyphenylacetic acid (GABA receptors [10]): decreased affinity
- Activity (Adenosine, Non-selective): No (key: No: Activity = greater than or equal to 50% Inhibition of binding)
- Percent Inhibition (Average; N = 2) (Adenosine, Non-selective): −3.45%
- Activity [11]: No (key: No: Activity = greater than or equal to 50% Inhibition of binding)
- Percent Inhibition (Average; N = 2) [11]: −10.77%
- Activity [12]: No (key: No: Activity = greater than or equal to 50% Inhibition of binding)
- Percent Inhibition (Average; N = 2) [12]: 0.21%
- Activity [3]: No (key: No: Activity = greater than or equal to 50% Inhibition of binding)
- Percent Inhibition (Average; N = 2) [3]: 43.67%
- Activity (Dopamine, Non-selective): No (key: No: Activity = greater than or equal to 50% Inhibition of binding)
- Percent Inhibition (Average; N = 2) (Dopamine, Non-selective): 14.51%
- Activity (GABA, Non-Selective): No (key: No: Activity = greater than or equal to 50% Inhibition of binding)
- Percent Inhibition (Average; N = 2) (GABA, Non-Selective): 10.28%
- Activity (Melatonin, Non-selective): No (key: No: Activity = greater than or equal to 50% Inhibition of binding)
- Percent Inhibition (Average; N = 2) (Melatonin, Non-selective): 12.69%
- Activity [4]: No (key: No: Activity = greater than or equal to 50% Inhibition of binding)
- Percent Inhibition (Average; N = 2) [4]: 6.98%
- Activity [5]: No (key: No: Activity = greater than or equal to 50% Inhibition of binding)
- Percent Inhibition (Average; N = 2) [5]: −0.77%
- Activity (Opiod, Non-selective): No (key: No: Activity = greater than or equal to 50% Inhibition of binding)
- Percent Inhibition (Average; N = 2) (Opiod, Non-selective): 0.09%
- Activity (Serotonin, Non-selective): No (key: No: Activity = greater than or equal to 50% Inhibition of binding)
- Percent Inhibition (Average; N = 2) (Serotonin, Non-selective): −1.83%
- Activity (Sigma, Non-selective): No (key: No: Activity = greater than or equal to 50% Inhibition of binding)
- Percent Inhibition (Average; N = 2) (Sigma, Non-selective): 4.30%
- Activity [13]: No (key: No: Activity = greater than or equal to 50% Inhibition of binding)
- Percent Inhibition (Average; N = 2) [13]: 9.41%
- Activity [14]: No (key: No: Activity = greater than or equal to 50% Inhibition of binding)
- Percent Inhibition (Average; N = 2) [14]: 14.52%
- Activity (Calcium Channel, Type N): No (key: No: Activity = greater than or equal to 50% Inhibition of binding)
- Percent Inhibition (Average; N = 2) (Calcium Channel, Type N): −2.31%
- Activity [15]: No (key: No: Activity = greater than or equal to 50% Inhibition of binding)
- Percent Inhibition (Average; N = 2) [15]: −15.01%
- Activity [16]: No (key: No: Activity = greater than or equal to 50% Inhibition of binding)
- Activity (Sodium, Site 2): No (key: No: Activity = greater than or equal to 50% Inhibition of binding)
- Percent Inhibition (Average; N = 2) (Sodium, Site 2): 10.18%
- Activity [17]: No (key: No: Activity = greater than or equal to 50% Inhibition of binding)
- Percent Inhibition (Average; N = 2) ([17]; human): −11.94%

SMILES: O=C(O)Cc1cccc(OCc2ccccc2)c1 [Compound 11, benzyl ether of 3-hydroxyphenylacetic acid]
- fold lower affinity for GHB receptors than 3-hydroxyphenylacetic acid [18]: 4 fold
- Percent displacement of [3H]GABA at 1 Mm, GABAA (GABAA receptors [8]): 11.0 ± 6.2%
- Percent displacement of [3H]GABA at 1 Mm, GABAB (GABAB receptors [9]): −4.7 ± 4.7%
- affinity at GABA receptors / displacement of [3H]GABA compared with 3-hydroxyphenylacetic acid (GABA receptors [10]): lower extent

SMILES: O=C(O)Cc1cccc(Oc2ccccc2)c1 [Compound 12, phenyl ether of 3-hydroxyphenylacetic acid]
- Percent displacement of [3H]GABA at 1 Mm, GABAA (GABAA receptors [8]): 2.7 ± 0.5%
- Percent displacement of [3H]GABA at 1 Mm, GABAB (GABAB receptors [9]): −5.5 ± 1.2%
- affinity at GABA receptors / displacement of [3H]GABA compared with 3-hydroxyphenylacetic acid (GABA receptors [10]): decreased affinity

SMILES: CCOC(=O)C1=C(C)NC(C)=C(C(=O)OC)C1c1cccc([N+](=O)[O-])c1 (stereo not drawn) [[3H]Nitrendipine]
- Kd [19]: 0.2 nM
